Results as given in patent EP4806910A1, “TRI-AGONIST COMPOUND” (priority 2023, dated 2025).

Tests used:
Format in all cases: cell-based
[1] = molecular target: T1, GLP-1R (Homo sapiens, UniProt P43220); test: GLP-1 activity test (cAMP, chemiluminescence)
T1 construct: expressed in transfected cells; host or cells: CHO-K1
Description: (§1) Upon stimulation by a specific agonist, GLP-1R activates the intracellular adenylate cyclase signaling pathway, resulting in an increase in cAMP levels and ultimately leading to insulin production and secretion. A cell line stably transfected with GLP-1R was stimulated with test compounds, thereby rapidly increasing intracellular cAMP levels. The relative luminescence units (RLU) of cells stimulated at various concentrations were measured by a chemiluminescence method, and the EC50 value of the agonist was calculated accordingly. This activity test method is currently a commonly used method for evaluating GLP-1 receptor agonist activity both domestically and internationally. A CHO-K1 cell line stably expressing GLP-1R was used. The stable cells were stimulated with agonists at different concentrations, and the relative luminescence units after stimulation at each concentration were measured to calculate the EC50 value of the agonist.

[2] = molecular target: T2, GIPR (Homo sapiens, UniProt P48546); test: GIP activity test (cAMP, chemiluminescence)
T2 construct: expressed in transfected cells; host or cells: CHO-K1
T2 sequence (P48546 22-466): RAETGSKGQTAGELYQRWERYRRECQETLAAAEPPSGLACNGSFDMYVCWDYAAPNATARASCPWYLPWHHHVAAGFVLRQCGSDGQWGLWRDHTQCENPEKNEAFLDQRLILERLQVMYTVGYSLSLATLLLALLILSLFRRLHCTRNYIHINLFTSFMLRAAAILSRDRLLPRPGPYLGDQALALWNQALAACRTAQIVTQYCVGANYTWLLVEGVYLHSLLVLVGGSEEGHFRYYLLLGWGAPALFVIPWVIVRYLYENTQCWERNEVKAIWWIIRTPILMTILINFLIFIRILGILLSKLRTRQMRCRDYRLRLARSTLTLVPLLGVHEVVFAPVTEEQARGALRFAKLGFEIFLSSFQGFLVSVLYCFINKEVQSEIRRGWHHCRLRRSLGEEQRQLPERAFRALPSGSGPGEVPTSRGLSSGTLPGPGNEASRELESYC
Description: as §1, with “agonist, GIPR” for “agonist, GLP-1R”, “with GIPR” for “with GLP-1R”, “activity assay” for “activity test”, “evaluating GIP” for “evaluating GLP-1”, “expressing GIPR” for “expressing GLP-1R”

[3] = molecular target: T3, GCG-R (Homo sapiens, UniProt P47871); test: GCG activity test (cAMP, chemiluminescence)
T3 construct: expressed in transfected cells; host or cells: CHO-K1
T3 sequence (P47871 26-477, species assumed): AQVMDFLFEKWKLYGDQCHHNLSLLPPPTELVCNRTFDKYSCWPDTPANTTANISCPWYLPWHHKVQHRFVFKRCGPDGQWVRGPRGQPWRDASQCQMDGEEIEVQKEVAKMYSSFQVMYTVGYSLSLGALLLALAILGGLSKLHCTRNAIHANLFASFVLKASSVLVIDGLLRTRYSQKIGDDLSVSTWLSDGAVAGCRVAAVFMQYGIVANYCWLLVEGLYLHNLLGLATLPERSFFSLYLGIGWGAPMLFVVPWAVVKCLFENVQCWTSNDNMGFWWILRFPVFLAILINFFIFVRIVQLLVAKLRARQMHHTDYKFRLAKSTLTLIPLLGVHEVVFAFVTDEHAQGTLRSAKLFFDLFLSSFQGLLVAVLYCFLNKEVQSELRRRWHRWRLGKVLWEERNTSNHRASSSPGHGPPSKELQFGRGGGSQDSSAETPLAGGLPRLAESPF
Description: Upon stimulation by a specific agonist, GCG-R activates the intracellular adenylate cyclase signaling pathway, resulting in an increase in cAMP levels and ultimately leading to insulin production and secretion. A cell line stably transfected with GCG-R was stimulated with test compounds, thereby rapidly increasing intracellular cAMP levels. The relative luminescence units (RLU) of cells stimulated at various concentrations were measured by a chemiluminescence method, and the EC50 value of the agonist was calculated accordingly. This activity assay method is currently a commonly used method for evaluating GCG receptor agonist activity both domestically and internationally.
A CHO-K1 cell line stably expressing GCG-R was used. The stable cells were stimulated with agonists at different concentrations, and the relative luminescence units after stimulation at each concentration were measured to calculate the EC50 value of the agonist.

T1 sequence (P43220 24-463, species assumed): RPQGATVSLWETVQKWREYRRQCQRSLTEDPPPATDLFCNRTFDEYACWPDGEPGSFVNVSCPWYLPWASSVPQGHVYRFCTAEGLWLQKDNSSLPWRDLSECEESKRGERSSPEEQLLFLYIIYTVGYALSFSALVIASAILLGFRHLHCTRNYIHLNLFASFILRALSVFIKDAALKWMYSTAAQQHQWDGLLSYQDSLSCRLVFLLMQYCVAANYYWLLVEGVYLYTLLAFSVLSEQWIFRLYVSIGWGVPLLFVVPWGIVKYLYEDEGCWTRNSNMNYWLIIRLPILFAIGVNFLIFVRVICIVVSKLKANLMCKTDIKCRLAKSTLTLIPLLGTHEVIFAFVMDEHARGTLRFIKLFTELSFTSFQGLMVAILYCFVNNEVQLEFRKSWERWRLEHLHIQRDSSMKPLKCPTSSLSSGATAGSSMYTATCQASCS

SMILES	EC50 [1]	EC50 [2]	EC50 [3]
CC[C@H](C)[C@H](NC(=O)[C@H](Cc1ccccc1)NC(=O)[C@H](C)NC(=O)C(C)(C)NC(=O)[C@H](CCC(N)=O)NC(=O)[C@H](C)NC(=O)[C@H](CCCCNC(=O)COCCOCCNC(=O)CCCCC[C@H](NC(=O)CCCCCCCCCCCCCCCCCCC(=O)O)C(=O)O)NC(=O)[C@H](CCCCN)NC(=O)[C@H](CC(=O)O)NC(=O)[C@H](CC(C)C)NC(=O)C(C)(CC(C)C)NC(=O)[C@@H](NC(=O)[C@H](CO)NC(=O)[C@H](Cc1ccc(O)cc1)NC(=O)[C@H](CC(=O)O)NC(=O)[C@H](CO)NC(=O)[C@@H](NC(=O)C(C)(Cc1ccccc1F)NC(=O)[C@@H](NC(=O)CNC(=O)[C@H](CCC(N)=O)NC(=O)C(C)(C)NC(=O)[C@@H](N)Cc1ccc(O)cc1)[C@@H](C)O)[C@@H](C)O)[C@@H](C)CC)C(=O)N[C@@H](CCC(=O)O)C(=O)N[C@@H](Cc1ccc(O)cc1)C(=O)N[C@@H](CC(C)C)C(=O)N[C@@H](CC(C)C)C(=O)N[C@@H](CCC(=O)O)C(=O)NCCCCC(=O)N1CCC[C@H]1C(=O)N[C@@H](CO)C(=O)N[C@@H](CO)C(=O)NCC(=O)N[C@@H](C)C(=O)N1CCC[C@H]1C(=O)N1CCC[C@H]1C(=O)N1CCC[C@H]1C(=O)N[C@@H](CO)C(N)=O (stereo partly drawn) [Compound 8]	0.0524 nM	0.0329 nM	0.179 nM
CC[C@H](C)[C@H](NC(=O)[C@H](Cc1ccccc1)NC(=O)[C@H](C)NC(=O)C(C)(C)NC(=O)[C@H](CCC(N)=O)NC(=O)[C@H](C)NC(=O)[C@H](CCCCNC(=O)COCCOCCNC(=O)CCCC[C@H](NC(=O)CCCCCCCCCCCCCCCCCCC(=O)O)C(=O)O)NC(=O)[C@H](CCCCN)NC(=O)[C@H](CC(=O)O)NC(=O)[C@H](CC(C)C)NC(=O)C(C)(CC(C)C)NC(=O)[C@@H](NC(=O)[C@H](CO)NC(=O)[C@H](Cc1ccc(O)cc1)NC(=O)[C@H](CC(=O)O)NC(=O)[C@H](CO)NC(=O)[C@@H](NC(=O)C(C)(Cc1ccccc1)NC(=O)[C@@H](NC(=O)CNC(=O)[C@H](CCC(N)=O)NC(=O)C(C)(C)NC(=O)[C@@H](N)Cc1ccc(O)cc1)[C@@H](C)O)[C@@H](C)O)[C@@H](C)CC)C(=O)N[C@@H](CCC(=O)O)C(=O)N[C@@H](Cc1ccc(O)cc1)C(=O)N[C@@H](CC(C)C)C(=O)N[C@@H](CC(C)C)C(=O)N[C@@H](CCC(=O)O)C(=O)NCCCCC(=O)N1CCC[C@H]1C(=O)N[C@@H](CO)C(=O)N[C@@H](CO)C(=O)NCC(=O)N[C@@H](C)C(=O)N1CCC[C@H]1C(=O)N1CCC[C@H]1C(=O)N1CCC[C@H]1C(=O)N[C@@H](CO)C(N)=O (stereo partly drawn) [Compound 3]	0.0452 nM	0.0267 nM	0.283 nM
CC[C@H](C)[C@H](NC(=O)[C@H](Cc1ccccc1)NC(=O)[C@H](C)NC(=O)C(C)(C)NC(=O)[C@H](CCC(N)=O)NC(=O)[C@H](C)NC(=O)[C@H](CCCCNC(=O)COCCOCCNC(=O)CCCC[C@H](NC(=O)CCCCCCCCCCCCCCCCCCC(=O)O)C(=O)O)NC(=O)[C@H](CCCCN)NC(=O)[C@H](CC(=O)O)NC(=O)[C@H](CC(C)C)NC(=O)C(C)(CC(C)C)NC(=O)[C@@H](NC(=O)[C@H](CO)NC(=O)[C@H](Cc1ccc(O)cc1)NC(=O)[C@H](CC(=O)O)NC(=O)[C@H](CO)NC(=O)[C@@H](NC(=O)C(C)(Cc1ccccc1F)NC(=O)[C@@H](NC(=O)CNC(=O)[C@H](CCC(N)=O)NC(=O)C(C)(C)NC(=O)[C@@H](N)Cc1ccc(O)cc1)[C@@H](C)O)[C@@H](C)O)[C@@H](C)CC)C(=O)N[C@@H](CCC(=O)O)C(=O)N[C@@H](Cc1ccc(O)cc1)C(=O)N[C@@H](CC(C)C)C(=O)N[C@@H](CC(C)C)C(=O)N[C@@H](CCC(=O)O)C(=O)NCCCCC(=O)N1CCC[C@H]1C(=O)N[C@@H](CO)C(=O)N[C@@H](CO)C(=O)NCC(=O)N[C@@H](C)C(=O)N1CCC[C@H]1C(=O)N1CCC[C@H]1C(=O)N1CCC[C@H]1C(=O)N[C@@H](CO)C(N)=O (stereo partly drawn) [Compound 7]	0.0455 nM	0.0246 nM	0.163 nM
CC[C@H](C)[C@H](NC(=O)[C@H](Cc1ccccc1)NC(=O)[C@H](C)NC(=O)C(C)(C)NC(=O)[C@H](CCC(N)=O)NC(=O)[C@H](C)NC(=O)[C@H](CCCCNC(=O)COCCOCCNC(=O)CCCCC[C@H](NC(=O)CCCCCCCCCCCCCCCCCCC(=O)O)C(=O)O)NC(=O)[C@H](CCCCN)NC(=O)[C@H](CC(=O)O)NC(=O)[C@H](CC(C)C)NC(=O)C(C)(CC(C)C)NC(=O)[C@@H](NC(=O)[C@H](CO)NC(=O)[C@H](Cc1ccc(O)cc1)NC(=O)[C@H](CC(=O)O)NC(=O)[C@H](CO)NC(=O)[C@@H](NC(=O)C(C)(Cc1ccccc1)NC(=O)[C@@H](NC(=O)CNC(=O)[C@H](CCC(N)=O)NC(=O)C(C)(C)NC(=O)[C@@H](N)Cc1ccc(O)cc1)[C@@H](C)O)[C@@H](C)O)[C@@H](C)CC)C(=O)N[C@@H](CCC(=O)O)C(=O)N[C@@H](Cc1ccc(O)cc1)C(=O)N[C@@H](CC(C)C)C(=O)N[C@@H](CC(C)C)C(=O)N[C@@H](CCC(=O)O)C(=O)NCCCCC(=O)N1CCC[C@H]1C(=O)N[C@@H](CO)C(=O)N[C@@H](CO)C(=O)NCC(=O)N[C@@H](C)C(=O)N1CCC[C@H]1C(=O)N1CCC[C@H]1C(=O)N1CCC[C@H]1C(=O)N[C@@H](CO)C(N)=O (stereo partly drawn) [Compound 4]	0.0554 nM	0.031 nM	0.286 nM
CC[C@H](C)[C@H](NC(=O)[C@H](Cc1ccccc1)NC(=O)[C@H](C)NC(=O)C(C)(C)NC(=O)[C@H](CCC(N)=O)NC(=O)[C@H](C)NC(=O)[C@H](CCCCNC(=O)COCCOCCNC(=O)CC[C@H](NC(=O)CCCCCCCCCCCCCCCCCCC(=O)O)C(=O)O)NC(=O)[C@H](CCCCN)NC(=O)[C@H](CC(=O)O)NC(=O)[C@H](CC(C)C)NC(=O)C(C)(CC(C)C)NC(=O)[C@@H](NC(=O)[C@H](CO)NC(=O)[C@H](Cc1ccc(O)cc1)NC(=O)[C@H](CC(=O)O)NC(=O)[C@H](CO)NC(=O)[C@@H](NC(=O)C(C)(Cc1ccccc1F)NC(=O)[C@@H](NC(=O)CNC(=O)[C@H](CCC(N)=O)NC(=O)C(C)(C)NC(=O)[C@@H](N)Cc1ccc(O)cc1)[C@@H](C)O)[C@@H](C)O)[C@@H](C)CC)C(=O)N[C@@H](CCC(=O)O)C(=O)N[C@@H](Cc1ccc(O)cc1)C(=O)N[C@@H](CC(C)C)C(=O)N[C@@H](CC(C)C)C(=O)N[C@@H](CCC(=O)O)C(=O)NCCCCC(=O)N1CCC[C@H]1C(=O)N[C@@H](CO)C(=O)N[C@@H](CO)C(=O)NCC(=O)N[C@@H](C)C(=O)N1CCC[C@H]1C(=O)N1CCC[C@H]1C(=O)N1CCC[C@H]1C(=O)N[C@@H](CO)C(N)=O (stereo partly drawn) [Compound 5]	0.0434 nM	0.0236 nM	0.159 nM
CC[C@H](C)[C@H](NC(=O)[C@H](Cc1ccccc1)NC(=O)[C@H](C)NC(=O)C(C)(C)NC(=O)[C@H](CCC(N)=O)NC(=O)[C@H](C)NC(=O)[C@H](CCCCNC(=O)COCCOCCNC(=O)COCCOCCNC(=O)CC[C@H](NC(=O)CCCCCCCCCCCCCCCCCCC(=O)O)C(=O)O)NC(=O)[C@H](CCCCN)NC(=O)[C@H](CC(=O)O)NC(=O)[C@H](CC(C)C)NC(=O)C(C)(CC(C)C)NC(=O)[C@@H](NC(=O)[C@H](CO)NC(=O)[C@H](Cc1ccc(O)cc1)NC(=O)[C@H](CC(=O)O)NC(=O)[C@H](CO)NC(=O)[C@@H](NC(=O)C(C)(Cc1ccccc1)NC(=O)[C@@H](NC(=O)CNC(=O)[C@H](CCC(N)=O)NC(=O)C(C)(C)NC(=O)[C@@H](N)Cc1ccc(O)cc1)[C@@H](C)O)[C@@H](C)O)[C@@H](C)CC)C(=O)N[C@@H](CCC(=O)O)C(=O)N[C@@H](Cc1ccc(O)cc1)C(=O)N[C@@H](CC(C)C)C(=O)N[C@@H](CC(C)C)C(=O)N[C@@H](CCC(=O)O)C(=O)NCCCCC(=O)N1CCC[C@H]1C(=O)N[C@@H](CO)C(=O)N[C@@H](CO)C(=O)NCC(=O)N[C@@H](C)C(=O)N1CCC[C@H]1C(=O)N1CCC[C@H]1C(=O)N1CCC[C@H]1C(=O)N[C@@H](CO)C(N)=O (stereo partly drawn) [Compound 9]	0.0519 nM	0.0268 nM	0.307 nM
